Two compounds from paper PMC5723347, “Silencing of D-Lactate Dehydrogenase Impedes Glyoxalase System and Leads to Methylglyoxal Accumulation and Growth Inhibition in Rice” (Frontiers in Plant Science, 2017) can be followed below.

The test system of the assay is T1, OsD-LDH-FL.
T1 construct: full-length 561 residues including mitochondrial targeting peptide, N-terminal GST tag kept (pGEX-6P-1), 87 kDa fusion, expressed in E. coli BL21 (DE3)
Kind of assay: spectrophotometric cytochrome c reduction at […] nm, Hanes-Woolf. Format: biochemical, Oryza sativa subsp. indica. The conditions noted are these: 200 μM cytochrome c as electron acceptor, pH 8.35, 30°C, 50 mM potassium phosphate.

Where two headings read alike, the source gives them in different places.

Regarding `CC[C@@H](O)C(=O)O` [D-2-hydroxybutyrate], under “read-out: D-2-HB / KM”, the Km was determined as 11 ± 0.34 µM.
Consider `C[C@@H](O)C(=O)O` [D-lactate], for which the Km (read-out: D-LACTATE / KM) is 41.4 ± 2.93 µM.
